Tests used:
[1] = system: PGE1 and PGE2 response in CCD18 cells; test: Spontaneous PGE1 and PGE2 response in CCD18 cells; type: cell-based; details: n=7
Protocol: (§1) The effect of lactate and a SCFA mixture was analysed as described in Willemsen, L E M, Koetsier M A, van Deventer S J H, van Tol E A F (2003), Gut 52:1442-1447, with the following modifications: Lactate and a mixture of acetate/propionate/butyrate 90/5/5 was tested. For the mucus production experiments a co-culture of CCD18 and T84 cells was used, whereas for the PGE1 and PGE2 production experiments a monoculture of CCD18 cells was used.

[2] = system: muc-2 expression in a CCD18/T84 co-culture; test: muc-2 expression in CCD18/T84 co-culture; type: cell-based
Protocol: as §1

[3] = system: distal and proximal part of the colon; test: Contraction of isolated colon segments in organ bath; set-up: species or system Male Wistar rats; details: for Tension of tonic contractions (FIG. 5): increasing concentrations up to 100 mM, effect higher in distal than proximal colon
Excerpt: Male Wistar rats (CKP/Harlan, Wageningen/Horst, Netherlands) were housed under conditions of controlled temperature and light cycle and were provided free access to food pellets and water. Animals were anaesthetised by a mixture of N2O, O2 and isofluran, the abdomen was opened and the colon was removed immediately. The tissue was placed in Krebs-Henseleit buffer pH 7.4 (composition in mM: 118.0 NaCl, 4.75 KCl, 1.18 MgSO4, 2.5 CaCl2, 10 glucose, 1.17 KH2PO4 and 24.9 NaHCO3).
The colon was cut into a distal and a proximal portion and was rinsed with Krebs-Henseleit buffer while gently squeezing out faecal content. To approximate in vivo conditions as closely as possible, 1 cm fully intact segments were attached longitudinally to an isometric force transducer (F30 type 372, HSE, Germany) in 20 ml water-jacketed (37° C.) organ baths (Schuler, HSE, Germany) containing Krebs-Henseleit buffer gassed continuously with 95% O2-5% CO2. The segments were gradually stretched to a resting tension of 1 g and allowed to equilibrate for 45 minutes with intermittent washings. The tensions of the segments in rest and in response to different stimuli were amplified by a transducer amplifier module (HSE, Germany) and recorded on a multi-pen recorder (Rikadenki, HSE, Germany).
The segments were incubated with 40 mM KCl for 5 minutes and the contractile responses were measured. KCl was washed out by three consecutive washes at 5 minutes intervals. The segments were then incubated with increasing concentrations up to 100 mM of acetate or sodium-L-lactate. The acid solutions were prepared freshly in distilled water. NaOH was added to acetate to obtain a neutral pH. At the end of the incubation with a fatty acid, 40 mM KCl was added to determine whether the contractile response to KCl was influenced by the fatty acid. Before a new incubation the segments were allowed to equilibrate for 45 minutes in fresh Krebs-Henseleit buffer with intermittent washings.
The experimental protocol consisted of two proximal and two distal sections of the colon. For data analysis (n=3), the contraction level induced by the stimuli was defined as the tension in g after 5 minutes incubation. Data obtained from identical segments (proximal or distal) were used to calculate a mean value and each segment served as its own control sample.

[4] = proximal part of the colon, 25 mM
[5] = proximal part of the colon, concentrations higher than 25 mM

| Compound | Increase of PGE1 (FIG. 4b) ([1]; at 100 μM) | Increase of PGE2 (FIG. 4b) ([1]; at 250 μM, P<0.05) | Increase of muc-2 expression (FIG. 4a) ([2]; at 0.5, 1 and 4 mM, n=6) | MUC-2 expression, dose dependence (FIG. 4A) ([2]; co-culture of CCD18 and T84 cells) | Number of spontaneous (phasic) contractions ([3]; distal part of the colon) | Tension of tonic contractions (FIG. 5) [3] | Number of spontaneous (phasic) contractions ([3]; proximal part of the colon) | Tonic contractions as a response to KCl [3, 4] | Tonic contractions as a response to KCl [3, 5] |
| --- | --- | --- | --- | --- | --- | --- | --- | --- | --- |
| C[C@H](O)C(=O)O [L-lactate] | statistically significant | statistically significant | statistically significant | dose dependently induces MUC-2 expression |  |  |  |  |  |
| C[C@H](O)C(=O)[O-].[Na+] [sodium-L-lactate] |  |  |  |  | no effects are observed | decrease the tension of tonic contractions | decrease | comparable in the presence or absence | significant relaxation |
| CC(=O)[O-].[Na+] [sodium acetate, reference compound] |  |  |  |  | no effects are observed | decrease the tension of tonic contractions | decrease | comparable in the presence or absence | significant relaxation |

Source: patent publication US20200023000A1, “SYNERGISM OF GOS AND POLYFRUCTOSE” (N.V. Nutricia, priority 2004, published 2020)
